The test system of assay [1] is follicular thyroid carcinoma cells. In words: caspase-3 activity (marker of apoptosis) in follicular thyroid carcinoma cells treated with camptothecin or doxorubicin. It is filed as cell-based, human. The conditions noted are these: in the presence of doxorubicin or camptothecin, with vs without TSP1. On the procedure:
FIG. 1 is a graph illustration showing the caspase-3 activity, a marker of apoptosis, obtained by measuring the quantity of para-nitroaniline released per hour per μg of protein (y-axis). The caspase-3 activity is measured on follicular thyroid carcinoma cells in the presence of an anticancer molecule inducing apoptosis, camptothecin (Cpt) or doxorubicin (Dox) in the presence or absence of TSP1.
The latter therefore reduces the rate of apoptosis of the thyroid carcinoma cells subjected to an anti-cancer therapy.

In another assay the target is T1, TSP1/CD47 complexes (Homo sapiens, UniProt P07996).
T1 construct: endogenous in cells; host or cells: MDA-MB-231 breast cancer cells
T1 sequence (P07996 19-1170, one chain of several): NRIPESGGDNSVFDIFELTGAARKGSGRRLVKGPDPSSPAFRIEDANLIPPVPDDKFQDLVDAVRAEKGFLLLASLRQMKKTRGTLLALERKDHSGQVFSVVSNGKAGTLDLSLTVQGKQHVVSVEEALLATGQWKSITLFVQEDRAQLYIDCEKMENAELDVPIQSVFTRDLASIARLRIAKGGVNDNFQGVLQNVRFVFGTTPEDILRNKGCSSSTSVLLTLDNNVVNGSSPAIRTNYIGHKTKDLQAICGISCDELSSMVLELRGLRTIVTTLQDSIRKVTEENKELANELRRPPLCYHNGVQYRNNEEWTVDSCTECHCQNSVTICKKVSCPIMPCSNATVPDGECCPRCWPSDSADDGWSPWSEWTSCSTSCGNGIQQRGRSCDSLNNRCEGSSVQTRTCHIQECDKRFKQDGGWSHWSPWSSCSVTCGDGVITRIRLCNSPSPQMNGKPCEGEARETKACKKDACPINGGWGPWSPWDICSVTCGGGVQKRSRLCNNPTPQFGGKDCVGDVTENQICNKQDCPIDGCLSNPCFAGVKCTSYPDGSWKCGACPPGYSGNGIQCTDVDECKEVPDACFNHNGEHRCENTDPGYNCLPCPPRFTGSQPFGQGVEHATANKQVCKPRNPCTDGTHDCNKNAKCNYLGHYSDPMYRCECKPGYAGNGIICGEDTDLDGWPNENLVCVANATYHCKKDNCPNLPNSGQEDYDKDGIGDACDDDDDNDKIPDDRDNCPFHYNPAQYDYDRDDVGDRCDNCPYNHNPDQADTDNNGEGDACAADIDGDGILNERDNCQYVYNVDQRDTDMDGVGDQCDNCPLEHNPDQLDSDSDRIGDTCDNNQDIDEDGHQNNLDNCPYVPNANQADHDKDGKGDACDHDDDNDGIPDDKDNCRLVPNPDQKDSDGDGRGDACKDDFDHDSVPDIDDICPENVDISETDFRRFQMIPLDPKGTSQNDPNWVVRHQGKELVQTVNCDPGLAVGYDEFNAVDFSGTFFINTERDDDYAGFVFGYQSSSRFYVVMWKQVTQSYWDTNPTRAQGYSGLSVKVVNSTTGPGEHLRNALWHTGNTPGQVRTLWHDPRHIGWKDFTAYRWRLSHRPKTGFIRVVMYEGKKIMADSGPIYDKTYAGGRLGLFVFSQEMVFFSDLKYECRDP
In words: immunoprecipitation of TSP1/CD47 complexes with anti-CD47 antibody and Western Blot in MDA-MB-231 cells. In kind it is cell-based. The conditions noted are these: MDA-MB-231 breast cancer cells, 100 μM peptide. On the procedure:
FIG. 5 is a photo illustration showing the inhibition of the biomolecular interaction between the TSP1 and the CD47 receptor of the MDA-MB-231 breast cancer cells. The cells are incubated for 2 hours with […] 100 μM of the antagonist peptide according to the invention. The TSP1/CD47 complexes are then immunoprecipitated using an anti-CD47 antibody, then the presence of TSP1 and CD47 is analyzed using the Western Blot technique.
Thus, MDA-MB-231 cells corresponding to cells from a breast cancer were incubated for 24 hours with or without the dodecapeptide according to this invention. In particular, the peptide used was the one with sequence:
Immunoprecipitation of the complexes, with an antibody directed against the CD47, then an analysis of the TSP1 and CD47 proteins by the Western Blot method were then done.

For assay [2], the system named is thyroid carcinoma cells (FTC-133). In words: viability of FTC-133 thyroid carcinoma cells treated with camptothecin or doxorubicin. It is filed as cell-based, human. The conditions noted are these: FTC-133, 5 μM camptothecin or doxorubicin; for viability of the tumor cells: 100 μM peptide. Here is the method: FIG. 2 is a graph illustration showing the role of the peptide 4N1 (KRFYVVMWK (SEQ ID NO: 5), derived from the C-terminal domain of TSP1, and the CD47 receptor on the regulation of apoptosis induced by camptothecin (Cpt) or doxorubicin (Dox). To achieve this, thyroid carcinoma cells (FTC-133) were incubated with 5 μM of one or other of the drugs and 100 μM of test peptide 4N1 with or without B6H12 antibody (100 μg/mL) blocking the CD47 receptor. The same experiment was performed with a control peptide 4NGG (KRFYGGMWK SEQ ID NO:6), which is incapable of binding the CD47.
The inventors therefore sought to understand the role of the peptide 4N1 and the CD47 receptor in the inhibition of the apoptosis of cancer cells, and in particular the FTC-133 cells of human thyroid carcinoma (Rath et al., 2006).

Another assay concerns B16-F1 mouse melanoma. In words: B16-F1 mouse melanoma model in syngeneic C57Bl/6 mice. It is filed as in vivo. On the procedure:
FIG. 6 is a photo illustration showing the action of the cyclized antagonist peptide on mouse melanoma cells. After a subcutaneous injection of 250,000 B16-F1 mouse melanoma cells into syngeneic C57Bl/6 mice, intraperitoneal administrations of 10 mg/kg of the antagonist were given on days 3, 5 and 7. The mice were then sacrificed and the tumors photographed on day 20.
FIG. 7 is a photo illustration corresponding to an MRI analysis of an untreated tumor (on the left) and a tumor treated with the cyclized peptide of interest on day 12. An arrow points to the necrotic area.
was also tested directly in vivo on a B16-F1 mouse melanoma model injected into syngeneic C57Bl/6 mice.
FIG. 7 allows a comparison, thanks to a magnetic resonance imaging (RMI) analysis, of the tumor taken from the animal not treated with the tumor taken from the animal treated with the cyclized peptide by means of a disulfide bridge on day 12 after the injection of the tumor cells.

Turning to “TSP1: thrombospondin-1, extracellular matrix glycoprotein binding the CD47 receptor”, the “caspase-3 activity (para-nitroaniline released per hour per μg of protein)” value in assay [1] is listed as “inhibited considerably”.

As for “IEVSQLLKGDAS (Antagonist peptide of the bond between a receptor CD47 and a protein belonging to the thrombospondin family) [SEQ ID NO: 1]”, the “TSP1 detected by Western Blot after immunoprecipitation with anti-CD47 antibody (TSP1/CD47 interaction)” value in the assay with TSP1/CD47 complexes is given as “TSP1 is no longer detected”.

In the case of KRFYVVMWK [4N1], the “viability of the tumor cells” value in assay [2] is reported as “viability of the tumor cells is greater”. Moreover, the “protection of the tumor cells against the anti-cancer drugs” value in assay [2] (100 μM peptide plus B6H12 antibody (100 μg/mL) blocking CD47) is reported as “no longer protects the tumor cells”. Regarding KRFYGGMWK [4NGG], the “viability of the tumor cells” value in assay [2] is on record as “does not have any effect”. For the substance CEVSQLLKGDAC [SEQ ID NO: 2], in the assay with TSP1/CD47 complexes, the “TSP1 detected by Western Blot after immunoprecipitation with anti-CD47 antibody (TSP1/CD47 interaction)” value was “prevents the molecular interaction between the TSP1 protein and the CD47 receptor”. The “mice showing a large necrotic area located in the tumor” value in the assay with B16-F1 mouse melanoma (10 mg/kg intraperitoneal on days 3, 5 and 7, tumors on day 20) is given as 4/8. In addition, in the assay with B16-F1 mouse melanoma (day 12 after the injection of the tumor cells), the “necrotic area in the tumor by MRI analysis” value is recorded as “has a necrotic area”.
